# From patent publication US10882865B2, “Pyrrolopyrimidine compounds and uses thereof for modulating glucocerebrosidase activity” (Northwestern University, priority 2018, dated 2021)
# Molecular target: T1, glucocerebrosidase (GCase) (Homo sapiens, UniProt P04062)
# T1 sequence (P04062 40-536): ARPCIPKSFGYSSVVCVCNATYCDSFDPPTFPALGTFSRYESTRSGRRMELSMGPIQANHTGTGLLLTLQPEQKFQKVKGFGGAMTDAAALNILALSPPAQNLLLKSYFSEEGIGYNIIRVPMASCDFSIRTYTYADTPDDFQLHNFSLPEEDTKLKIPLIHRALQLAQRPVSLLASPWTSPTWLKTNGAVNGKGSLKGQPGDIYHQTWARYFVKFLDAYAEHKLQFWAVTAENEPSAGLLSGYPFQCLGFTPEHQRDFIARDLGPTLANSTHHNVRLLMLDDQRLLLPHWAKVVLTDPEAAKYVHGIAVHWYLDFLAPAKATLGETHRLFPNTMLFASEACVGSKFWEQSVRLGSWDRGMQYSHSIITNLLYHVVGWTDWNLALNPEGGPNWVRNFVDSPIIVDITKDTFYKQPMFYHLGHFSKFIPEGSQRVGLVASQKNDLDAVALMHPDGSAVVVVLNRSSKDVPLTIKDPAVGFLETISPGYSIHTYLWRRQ
# Experiment: Glucocerebrosidase activation (Table 1, Exemplary Compounds and Activities)
# Type: biochemical
# Settings: activation of glucocerebrosidase; for Emax: read-out: Maximum Activation (Emax)
# Text: The compounds disclosed herein preferably modulate activity of glucocerebrosidase. Modulation may include inhibiting or decreasing glucocerebrosidase activity. Modulation also may include activating or increasing glucocerebrosidase activity. Glucocerebrosidase activity may be assessed utilizing methods known in the art and the methods disclosed herein, including the methods disclosed in the Examples provided herein. In some embodiments, the compounds decrease or increase glucocerebrosidase activity relative to a control (e.g., by at least about 10%, 20%, 30%, 40%, 50%, 60%, 70%, 80%, 90%, 100%, 200%, 300%, 400%, 500%, 600%, 700%, 800%, 900%, 1000% or more (or within a range bounded by any of these values)). In other embodiments, the compounds activate glucocerebrosidase greater than about 2-fold, 3-fold, 4-fold, 5-fold, 10-fold, 20-fold, 30-fold, 40-fold, 50-fold, 60-fold, 70-fold, 80-fold, 90-fold, or 100-fold, relative to a control. […] In other embodiments, an AC50 value for the compound in regard to activation of glucocerebrosidase may be determined and preferably the compound has an AC50 value of less than about 10 μM, 5 μM, or 1 μM, 0.5 μM, 0.1 μM, 0.05 μM, 0.01 μM, 0.005 μM, or 0.001 μM (or within a range bounded by any of these values).
# Methods for measuring glucocerebrosidase activity are known in the art. (See, e.g., U.S. Publication No. 2017/0001976 and U.S. Publication No. 2017/0002013 and Zheng et al. “Design and Synthesis of Potent Quinazolines as Selective β-Glucocerebrosidase Modulators, J. Med. Chem. 2016 September 22; 59(18): 8508-8520; the contents of which are incorporated herein by reference in their entireties).
# The disclosed pyrrolopyrimidine compounds were synthesized and tested using the methods described below. Additional methods for synthesizing and testing pyrrolopyrimidine compounds are described in the art. (See, e.g., Zheng et al., β-Glucocerebrosidase Modulators Promote Dimerization of β-Glucocerebrosidase and Reveal an Allosteric Binding Site, J. Am. Chem. Soc., 2018, 140 (18), pp 5914-5924; and U.S. Pat. No. 9,802,942; the contents of which are incorporated herein by reference in their entireties).
SMILES,AC50 [µM],Emax [%]
Cc1cc(C)n2ccc(C(=O)Nc3cccc4c3CCCC4)c2n1 [compound 11],1.41,400
Cc1cc(C)n2ccc(C(=O)Nc3ccc4c(c3)COC4)c2n1 [compound 25],7.94,456
COC(=O)Cc1cccc(NC(=O)c2ccn3c(C)cc(C)nc23)c1 [compound 1],6.59,450
COC(=O)CCc1cccc(NC(=O)c2ccn3c(C)cc(C)nc23)c1 [compound 34],3.55,578
Cc1cc(C)n2ccc(C(=O)Nc3c(C)nn(Cc4ccccc4)c3C)c2n1 [compound 33],39.8,914
Cc1cc(C)n2ccc(C(=O)Nc3ccc(C(=O)O)cc3)c2n1 [compound 21],35.5,622
Cc1cc(C)n2ccc(C(=O)Nc3ccc4c(c3)CCCC4)c2n1 [compound 24],3.55,527
Cc1cc(C)n2ccc(C(=O)NCC3COc4ccccc4O3)c2n1 (stereo not shown) [compound 23],28.2,644
Cc1cc(C)n2ccc(C(=O)Nc3ccc(CCC(=O)O)cc3)c2n1 [compound 15],36.6,700
Cc1cc(C)n2ccc(C(=O)Nc3cccc(C(=O)ON4C(=O)CCC4=O)c3)c2n1 [compound 6],4.59,460
Cc1cc(C)n2ccc(C(=O)Nc3ccc(CC(=O)ON4C(=O)CCC4=O)cc3)c2n1 [compound 29],4.47,374
CCOC(=O)c1ccc(NC(=O)c2ccn3c(C)cc(C)nc23)cc1 [compound 19],0.71,250
COC(=O)CCc1ccc(NC(=O)c2ccn3c(C)cc(C)nc23)cc1 [compound 13],0.63,180
Cc1cc(C)n2ccc(C(=O)Nc3ccc4c(c3)CCCC4=O)c2n1 [compound 31],1,355
Cc1cc(C)n2ccc(C(=O)Nc3cccc4c3CCC4)c2n1 [compound 10],0.77,202
Cc1cc(C)n2ccc(C(=O)Nc3cccc(C(C)C)c3)c2n1 [compound 9],2.23,280

SMILES,AC50 [µM],Emax [%]
Cc1cc(C)n2ccc(C(=O)Nc3ccc(CC(=O)O)cc3)c2n1 [compound 22],35.5,429
"Cc1cc(C)n2ccc(C(=O)Nc3cccc(CC(=O)ON4C(=O)CCC4=O)c3)c2n1 [compound 3, 2,5-dioxopyrrolidin-1-yl 2-(3-(2,4-dimethylpyrrolo[1,2-a]pyrimidine-8-carboxamido)phenyl)acetate]",9.09,500
Cc1cc(C)n2ccc(C(=O)Nc3cccc(NC(=O)CCl)c3)c2n1 [compound 8],3.43,480
C=CC(=O)Nc1cccc(NC(=O)c2ccn3c(C)cc(C)nc23)c1 [compound 14],6.46,
Cc1cc(C)n2ccc(C(=O)Nc3cccc(CC(=O)O)c3)c2n1 [compound 2],30,550
Cc1cc(C)n2ccc(C(=O)Nc3ccc(C(=O)ON4C(=O)CCC4=O)cc3)c2n1 [compound 28],50,115
Cc1cc(C)n2ccc(C(=O)Nc3cccc(N)c3)c2n1 [compound 7],3.39,210
Cc1cc(C)n2ccc(C(=O)Nc3ccc4c(c3)CCO4)c2n1 [compound 30],1.12,198
Cc1cc(C)n2ccc(C(=O)Nc3ccc4c(c3)C(=O)CCC4)c2n1 [compound 17],3.88,750
Cc1cc(C)n2ccc(C(=O)Nc3ccc4c(c3)C(=O)CC4)c2n1 [compound 16],1.49,225
CCOC(=O)Cc1ccc(NC(=O)c2ccn3c(C)cc(C)nc23)cc1 [compound 20],6.1,550
Cc1cc(C)n2ccc(C(=O)Nc3cccc(C(=O)O)c3)c2n1 [compound 5],2.87,175
Cc1cc(C)n2ccc(C(=O)Nc3ccc(CCC(=O)ON4C(=O)CCC4=O)cc3)c2n1 [compound 27],2.82,620
Cc1cc(C)n2ccc(C(=O)Nc3ccc4c(c3)CCC4)c2n1 [compound 26],1.12,290
CCOC(=O)c1cccc(NC(=O)c2ccn3c(C)cc(C)nc23)c1 [compound 4],1.18,400
Cc1cc(C)n2ccc(C(=O)Nc3cccc(CC(C)C)c3)c2n1 [compound 12],3.44,300

# Other lines, results leading:
AC50 [µM],Emax [%],SMILES
5,715,Cc1cc(C)n2ccc(C(=O)NCc3ccccc3CNC(=O)c3ccn4c(C)cc(C)nc34)c2n1 [compound 42]
28.2,,Cc1cc(C)n2ccc(C(=O)Nc3ccc(-c4cn(CCOCCOCCO)nn4)c(CC(=O)O)c3)c2n1 [compound 41]
4.47,,COC(=O)Cc1cc(NC(=O)c2ccn3c(C)cc(-c4cccnc4)nc23)ccc1-c1cn(CCOCCOCCO)nn1 [compound 40]
1.12,230,Cc1cc(C)n2ccc(C(=O)Nc3nc4c(s3)CC(C)(C)CC4)c2n1 [compound 46]
8.91,427,Cc1cc(C)n2ccc(C(=O)Nc3cccc(CCC(=O)O)c3)c2n1 [compound 37]
4.47,230,Cc1cc(C)n2ccc(C(=O)Nc3cccc(CC(=O)Oc4ccccc4)c3)c2n1 [compound 50]
1.78,325,Cc1cc(C)n2ccc(C(=O)Nc3nc4c(s3)CC(C)CC4)c2n1 (stereo not shown) [compound 45]
2.24,298,Cc1cc(C)n2ccc(C(=O)Nc3ccccc3Oc3ccccc3)c2n1 [compound 35]
1.42,280,Cc1cc(C)n2ccc(C(=O)Nc3cccc(Oc4ccccc4)c3)c2n1 [compound 36]
3.55,,Cc1cc(C)n2ccc(C(=O)Nc3ccc(CCCOCCOCCOCCOCCNC(=O)C4CCCCC4)c(CC(=O)ON4C(=O)CCC4=O)c3)c2n1 [compound 49]
10,172,Cc1cc(C)n2ccc(C(=O)Nc3cccc(CC(=O)Oc4ccc([N+](=O)[O-])cc4)c3)c2n1 [compound 51]
10,,COC(=O)Cc1cc(NC(=O)c2ccn3c(C)cc(C)nc23)ccc1-c1cn(CCOCCOCCO)nn1 [compound 39]
4.47,810,Cc1cc(C)n2ccc(C(=O)Nc3cccc(CCC(=O)ON4C(=O)CCC4=O)c3)c2n1 [compound 38]
1.58,342,Cc1cc(C)n2ccc(C(=O)Nc3nc4c(s3)CCCC4)c2n1 [compound 44]
3.16,796,CCOC(=O)Cc1cc(NC(=O)c2ccn3c(C)cc(C)nc23)ccc1CCCOCCOCCOCCOCCNC(=O)C1CCCCC1 [compound 48]
1.41,296,Cc1cc(C)n2ccc(C(=O)Nc3cccc(-c4ccccc4)c3)c2n1 [compound 43]
